The target in one series is T1, UGT2B7 (Homo sapiens, UniProt P16662).
T1 sequence (P16662 24-529): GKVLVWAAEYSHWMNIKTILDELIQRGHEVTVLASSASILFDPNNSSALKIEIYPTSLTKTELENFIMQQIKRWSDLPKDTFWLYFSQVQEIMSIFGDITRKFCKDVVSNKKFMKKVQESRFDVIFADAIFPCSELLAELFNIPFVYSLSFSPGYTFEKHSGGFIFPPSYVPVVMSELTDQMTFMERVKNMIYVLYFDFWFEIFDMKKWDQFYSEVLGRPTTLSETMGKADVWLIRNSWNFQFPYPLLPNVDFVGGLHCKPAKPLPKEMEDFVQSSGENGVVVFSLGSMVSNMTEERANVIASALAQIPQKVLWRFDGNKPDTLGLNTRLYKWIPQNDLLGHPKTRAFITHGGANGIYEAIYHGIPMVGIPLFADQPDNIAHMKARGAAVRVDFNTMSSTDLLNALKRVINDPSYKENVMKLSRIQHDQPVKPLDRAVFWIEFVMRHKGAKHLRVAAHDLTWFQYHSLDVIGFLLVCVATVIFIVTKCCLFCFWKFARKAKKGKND
The series can be described thus: Inhibition of recombinant UGT2B7 activity (4-MU glucuronidation). As to the method: (§1) A panel of recombinant human UGT supersomes (UGT1A1, UGT1A3, UGT1A4, UGT1A6, UGT1A7, UGT1A8, UGT1A9, UGT1A10, UGT2B4, UGT2B7, UGT2B15, and UGT2B17) expressed in baculovirus-infected insect cells were purchased from BD Gentest Corp. (Woburn, MA, USA).
(§2) 4-MU, a nonselective substrate of UGTs, was used as probe substrate for all UGTs except UGT1A4. Incubations with each individual enzyme were conducted using conditions previously described. There was a 5 min preincubation step at 37°C before the reaction was started by addition of UDPGA. The incubation mixtures were then centrifuged at 20,500 ×g for 15 min to obtain the supernatant. Aliquots (20 μL) were then analyzed by HPLC. The HPLC system (SHIMADZU, Kyoto, Japan) consisted of an SCL-10A system controller, two LC-10AT pumps, a SIL-10A auto injector, and a SPD-10AVP UV detector. Chromatographic separation was achieved using a Kromasil ODS column (4.6 × 150 mm I.D., 5 μm particle size) at a flow rate of 1 mL/min and UV detection at 316 nm. The mobile phase consisted of 10 mM KH2PO4, pH 2.7 (A) and acetonitrile (B). The following gradient was applied at a flow rate of 1 mL/min: 0–4 min 80% A and 20% B, 4.1–8 min 50% A and 50% B, 8.1–12 min, 30% A and 70% B. All experiments were performed in two independent experiments in duplicate.
A typical incubation mixture contained recombinant human UGTs, 5 mM MgCl2, 5 mM UDPGA, 50 μg/mg protein alamethicin, 50 mM Tris-HCl buffer (pH 7.4), and various probe substrates of UGTs in the absence or presence of different concentrations of inhibitors. […] The final concentration of DMSO in the incubation system was 1% (v/v). […] Known UGT inhibitors were used as positive controls: diclofenac for UGT1A1, UGT1A6, UGT1A7, and UGT1A9; androsterone for UGT1A3, UGT2B7, and UGT2B15, phenylbutazone for UGT1A8 and UGT1A10, and hecogenin for UGT1A4, respectively. There is no positive control reported available for UGT2B4 and UGT2B17. The negative controls are the incubation without UDPGA. […] The final concentration of DMSO in the incubation system was 1% (v/v). […] There was a 5 min preincubation step at 37°C before the reaction was started by the addition of UDPGA. Incubation times were 120 min for UGT1A1, UGT1A10, UGT2B4, UGT2B15, and UGT2B17, 75 min for UGT1A3, and 30 min for UGT1A4, UGT1A6, UGT1A7, UGT1A8, and UGT1A9. The reactions were quenched by adding 100 μL acetonitrile and internal standard. The incubation mixtures were then centrifuged at 20,500 ×g for 15 min to obtain the supernatant. An aliquot of the supernatant was used for HPLC analysis as described above. All experiments were performed in two independent experiments in duplicate.
(§3) Inhibition data from experiments were graphically represented by Dixon plots. K i values were calculated by nonlinear regression using the equations for competitive inhibition (1), noncompetitive inhibition (2), or mixed inhibition (3), [22] […] The type of inhibition was determined from the enzyme inhibition models. Goodness of fit to kinetic and inhibition models was assessed from the F statistic, r ^2 values, parameter standard error estimates, and 95% confidence intervals. […]

Series [1] in a line: Calculation of possible maximum concentrations in blood. Further details: species or system human. The settings on record: calculated, after a single oral administration of Epimedium pubescens decoction.
For the next series, the target named is T2, UGT1A9 (Homo sapiens, UniProt O60656).
T2 sequence (O60656 26-530): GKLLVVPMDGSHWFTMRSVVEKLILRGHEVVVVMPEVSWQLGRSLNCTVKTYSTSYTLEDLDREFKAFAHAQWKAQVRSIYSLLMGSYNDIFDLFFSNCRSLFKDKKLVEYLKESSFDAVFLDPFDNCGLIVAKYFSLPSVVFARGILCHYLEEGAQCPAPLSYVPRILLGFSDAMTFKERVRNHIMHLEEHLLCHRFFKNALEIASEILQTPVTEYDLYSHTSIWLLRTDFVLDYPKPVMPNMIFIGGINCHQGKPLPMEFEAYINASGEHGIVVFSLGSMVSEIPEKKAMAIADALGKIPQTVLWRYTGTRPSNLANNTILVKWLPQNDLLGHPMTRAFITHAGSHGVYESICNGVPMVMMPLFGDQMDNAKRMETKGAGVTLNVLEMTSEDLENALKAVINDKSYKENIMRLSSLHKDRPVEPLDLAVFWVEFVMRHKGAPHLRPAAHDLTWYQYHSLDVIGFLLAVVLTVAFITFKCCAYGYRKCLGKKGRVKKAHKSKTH
The series can be described thus: Inhibition of recombinant UGT1A9 activity (4-MU glucuronidation). As to the method:
as §1, §2
A typical incubation mixture contained recombinant human UGTs, 5 mM MgCl2, 5 mM UDPGA, 50 μg/mg protein alamethicin, 50 mM Tris-HCl buffer (pH 7.4), and various probe substrates of UGTs in the absence or presence of different concentrations of inhibitors. […] The final concentration of DMSO in the incubation system was 1% (v/v). […]
as §3

With `COc1ccc(-c2oc3c(CC=C(C)C)c(O[C@@H]4O[C@H](CO)[C@@H](O)[C@H](O)[C@H]4O)cc(O)c3c(=O)c2O[C@@H]2O[C@@H](C)[C@H](O)[C@@H](O)[C@H]2O)cc1` [Icariin], the IC50 at UGT2B7 and at UGT1A9 was greater than 100 µM in each case. Besides, in series [1], the “Possible maximum concentration in human blood” value (from here on “Possible maximum concentration”) is listed as “about 1.3 nM”.
`COc1ccc(-c2oc3c(CC=C(C)C)c(O[C@@H]4O[C@H](CO)[C@@H](O)[C@H](O)[C@H]4O)cc(O)c3c(=O)c2O)cc1` [Icariside I]: the IC50 on UGT2B7 and at UGT1A9 was greater than 100 µM in each case. In addition, the “Possible maximum concentration” value in series [1] is listed as roughly 0.1 nM.
Regarding `COc1ccc(-c2oc3c(CC=C(C)C)c(O)cc(O)c3c(=O)c2O)cc1` [Icaritin], the IC50 – broadly, the concentration that gives 50% inhibition – is greater than 100 µM on UGT2B7 and 1.5 ± 0.1 µM at UGT1A9. In addition, the “Possible maximum concentration” value in series [1] is recorded as roughly 1.5 nM.
